This is an account of results in patent publication US6042841A, “Cosmetic method of treating skin” (Unilever Home & Personal Care USA Division of Conopco, Inc., priority 1998, dated 2000).

Common to all, as to type: cell-based
One assay deals with procollagen-I. The assay can be described thus: Dot blot assay for procollagen-I synthesis in human dermal fibroblasts. The method, then: Primary human foreskin fibroblasts at passage 2 (P2) were seeded into 12-well plates at 10000 cells/cm^2 and maintained for 24 hours in an atmosphere of 5% carbon dioxide and 4% oxygen in Dulbeccos Modified Eagles Medium (DMEM) supplemented with 10% foetal calf serum. After this time the cells were washed with serum free DMEM and then incubated in fresh serum free DMEM for a further 60 hours. The fibroblast monolayers were then washed again with serum free DMEM. Test reagents and vehicle controls were added to the cells in triplicate in a final volume of 0.4 ml/well fresh serum free DMEM and incubated for a further 24 hours. This fibroblast conditioned medium was either analysed immediately or snap frozen in liquid nitrogen and stored at -70° C. for future analysis. The cells were then counted and data from the dot-blot analysis subsequently standardised to cell number.
Samples of conditioned medium from dermal fibroblasts treated with vehicle (as a control) or test reagents were supplemented with 20 mM dithiothreitol (1:10 dilution of 200 mM stock solution) and 0.1% sodium dodecylsulphate (1:100 dilution of 10% stock solution), mixed well and then incubated at 75° C. for 2 minutes. […]
In order to normalise the results the effects of the test substance was determined relative to a vehicle treated control value of 100 arbitrary units. […]

Another assay has as its system PGE2. The assay can be described thus: Keratinocyte PGE2 assay (basal release). Conditions: 0.1 and 1 μM; 1 way ANOVA, p<0.05. The method, then: This was then replaced with KGM without hydrocortisone for 24-48 hours. No petroselinic acid was added to the control cells. […] At the end of the incubation the medium was harvested and assayed for the basal release of the pro-inflammatory PGE2 by enzyme-linked immuno assay using a commercial PGE2 kit (Amersham, Buckinghamshire, England).
The anti-inflammatory potential of the test compounds were assessed by the ability of the compounds to reduce the basal levels of secreted PGE2 as compared to the control. […]

Another assay concerns ICAM. The assay can be described thus: ICAM-1 assay, PMA-induced ICAM production in human skin fibroblasts. The conditions noted are these: for ICAM: N 4, p < 0.001 vs PMA-treated. As for the experimental part:
Intracellular adhesion molecules (ICAM) and PEG2 production by human skin fibroblasts can be induced by the inflammatory stimulus PMA (phorbal myristate acetate). PMA represents an external stressor which induces oxidative stress and inflammatory responses in cells. This model is used to model inflammation in vivo.
Primary human foreskin fibroblasts at passage 2 (P2) were seeded into 96-well plates at 10000 cells/well and maintained for 24 hours in an atmosphere of 5% carbon dioxide in Dulbeccos Modified Eagles Medium (DMEM) supplemented with 10% foetal calf serum. […] Phorbal myristate acetate (PMA) (Sigma) was added to the media and the cells incubated for a further 24 hours. […] The fibroblasts/media were then analysed as described below immediately or snap frozen in liquid nitrogen and stored at -70° C. for future analysis. The cells were then counted and data from the dot-blot analysis subsequently standardised to cell number.
ICAM-1 assay: Media were discarded and cells washed with Dulbecco PBS. To the washed cells, 150 μl 0.1% Triton X-100 (Sigma) was added for 3 minutes to extract ICAM from cell membrane. The extracts were transferred to Eppendoff centrifuge tubes and centrifuged at 1000 g for 2 min to remove cell debris. A volume of 100 μl supernatant was used for ICAM assay. The soluble ICAM-1 was assessed with commercially available immunoenzymometric assay kit (R&D Systems). Concentrations of ICAM-1 in the samples were determined based on parallelly running standard curve.

On to `CCCCCCCCCCC/C=C\CCCCC(=O)O` [Petroselinic Acid, petroselinic acid], for which, in the assay on procollagen-I (Homo sapiens, Fibroblast, 10 μM, 24 hours, n = 3, read-out: Procollagen-I synthesis relative to vehicle treated control value of 100), the activity at 10 µM stood at 118 ± 8.6%. Besides, the “procollagen-I synthesis (in words)” value in the assay on procollagen-I (compared to the control) was “significantly upregulates”. The “release of PGE2 from unstimulated keratinocytes (in words)” value in the assay on PGE2 is recorded as “significantly (p<0.05) reduced”. For the same molecule, the ICAM with ICAM (PMA + PA (0.1 uM)) stood at 8.64 ± 0.89 ng/mL; with ICAM (PMA + PA (1 uM)), 7.71 ± 0.66 ng/mL; in the assay on ICAM (PMA + PA (10 uM)), 7.39 ± 0.14 ng/mL; with ICAM (PMA + PA (100 uM)), 6.68 ± 1.35 ng/mL. For the same molecule, the “production of ICAM (in words)” value with ICAM (PMA-challenged) is “decreases the production”.
